Test results as given in patent publication US10668039B2, “Methods for treatment of adenoid cystic carcinoma” (THE CHILDREN'S MEDICAL CENTER CORPORATION, priority 2016, dated 2020).

Legend:
[1] = test system: human salivary adenoid cystic carcinoma cell; conditions: Chen et al. 1998; cell line said not to be bona fide ACC; cited from earlier work
[2] = test system: U937 cells; assay: U937 proliferation, CellTiter-Glo; type: cell-based, human; conditions: 2 days (48 hours) of treatment, dose response
Protocol: Cell culture: U937 cells were grown in RPMI 1640 (Life Technologies), 10% heat inactivated FBS, and 1% Penicillin-Streptomycin (Invitrogen). CellTiter-Glo Luminescent Cell Viability Assay (Promega) was performed as per manufacturer's instructions. Cell viability was assessed at day 2.
Proliferation assays: U937 cells (ATCC) were grown in RPMI 1640 medium (Gibco) supplemented with 10% FBS and 1% Penicillin-Streptomycin (Gibco) and cultured in a 37° C. incubator with 5% CO2. U937 cells are listed in the database of commonly misidentified cell lines maintained by ICLAC, but authentic stocks are available and certified by ATCC based on DNA short-tandem repeat analysis. […] U937 cells were tested every other week for mycoplasma contamination using the MycoAlert Mycoplasma Detection Kit (Lonza) and consistently confirmed to be negative. Cells were seeded at an initial density of 1,150 cells/well (96 well plate) with chemicals at the concentrations indicated. After 48 hours, cell proliferation rates were determined using CellTiter-Glo (Promega) luminescent cell viability assay as per the manufacturer's instructions.

[3] = test system: ACC PDX models; assay: ATRA comparison TGI studies in ACC PDX models; type: in vivo; conditions: ATRA 8 mg/kg to 32 mg/kg; tamibarotene 2 mg/kg
Protocol: The TGI studies in ACC PDX models were repeated in order to compare the original ATRA dose (3 or 4 mg/ml) against a more physiologically relevant dose of ATRA (8 mg/kg) and an alternative retinoid Tamibarotene (originally developed for ATRA-resistant cancer settings, approved in Japan and currently in development at Syros Pharmaceuticals).

[4] = test system: H3K27ac; assay: ChIP-seq of short-term ACC x9 primagrafts, H3K27ac; type: in vivo, human; conditions: 3 days
Text: (§1) Primagraft experiments: For in vivo drug testing, ACC tumor fragments from host animals were implanted subcutaneously into the flank of nude mice (CRL: ATH/NU). Once tumors reached 125-250 mm3, mice were randomized to receive vehicle or drug diluted in 10:90 DMSO:10% hydroxypropyl-beta-cyclodextrin orally until controls reached a tumor volume endpoint of 1-2 cm3 (4-9 mice per group: x5M1 and x6, 4 treated vs. 9 vehicle controls; x9, 4 treated vs. 5 vehicle controls; x11, 5 treated vs. 8 vehicle controls). Mice were treated with ATRA (ACC x6 and x11: 4 mg/mL, 0.2 mL flat dose; ACC×9: 3 mg/mL, 0.2 mL flat dose) or isotretinoin (30 mg/mL, 0.2 mL flat dose). Tumor growth was monitored and mice weighed twice weekly and studies ended when final group reached tumor volume endpoint. No statistical methods were employed to determine the sample size, and no blinding of investigators was performed. […]
All ChIP-Seq datasets were aligned to UCSC build version hg19 of the human genome using Bowtie2 (version 2.2.1) with the following parameters: -end-to-end, —NO, -L20. […] ChIP-seq enrichment was determined as described previously in a 5 kb region (as counts per million) centered on the enriched peak regions (n=1,868) of the given MYB datasets. […]

[5] = test system: RARα; assay: Western blot of ACC primagrafts, RARα; type: in vivo, human; conditions: long-term ACC x11 and short-term (3 days) ACC x5M1 primagrafts
Text: as §1
Western blots: ACC x11 (from long-term tumor growth inhibition studies) and ACC x5M1 (from short-term kinetics studies) primagrafts were mechanically homogenized in RIPA lysis buffer (Thermo Scientific) supplemented by addition of complete protease inhibitor cocktail (Roche). Protein concentrations were determined by DC protein assay (BioRad).

CC(C=CC1=C(C)CCCC1(C)C)=CC=C/C(C)=C/C(=O)O [ATRA, (E)-3,7-dimethyl-9-(2,6,6-trimethyl-1-cyclo-hexen-1-yl)-2,4,6,8-nonatetraenoic acid]
effect on cell proliferation in vitro [1]: anti-proliferative effects | U937 proliferation (CellTiter-Glo) [2]: inhibited | tumor growth inhibition in the PDX studies [3]: showed tumor growth inhibition | H3K27ac at translocated enhancer sites [4]: decrease | RARα protein expression [5]: increased
